{"source": "patent US20050281821A1", "about": "“Method and composition for angiogenesis inhibition” (priority 1999, published 2005)", "key": {"MDA-MB-435 tumor cells": {"test_system": "MDA-MB-435 tumor cells", "experiment": "Orthotopic MDA-MB-435 human breast tumor model in mice", "format": "in vivo, female nude mice", "description": "The effect of antibodies D93 and H8 in an orthotopic human breast tumor model was evaluated. MDA-MB-435 tumor cells (0.4×10^6 cells/mouse) in 50 μl PBS were orthotopically implanted in the mammary fat pad of female nude mice (five to six weeks old). When tumors reached a mean volume of approximately 50-80 mm^3, mice were randomized (at least 10/group) and intravenous treatment with D93 and H8 at 1 μg (0.05 mg/kg) per dose, 10 μg (0.5 mg/kg), 100 μg (5 mg/kg) or 200 μg (10 mg/kg), or 100 μg control antibody DP28 in 100 μl PBS, or vehicle PBS 100 μl twice per week was initiated; in some studies, an untreated group was also evaluated.\nTumor sizes were measured every 7-20 days starting at the first day of treament and continued until day 50-80 post-treatment. Tumor length (L) and width (W) were measured with calipers and tumor volumes were calculated using the formula: (L×W^2)/2 where L was the length of the tumor or the largest diameter, and W was the width or shortest diameter. Animals were euthanized at the end of the study and final tumor measurements were recorded.\nThe effect of combination treatment of D93 with Taxol was evaluated for eight weeks in the orthotopic MDA-MB-435 human breast tumor model in mice. MDA-MB-435 tumor cells were implanted into female nude mice as described in Example 20. Animals were randomized into seven treatment groups (n=12-13/group) with mean tumor volume 78 mm^3. D93 was administered at 100 μg/dose (5 mg/kg) twice weekly. Taxol was administered intraperitoneally at 3 or 6 mg/kg q.w. A vehicle control group of animals received PBS twice weekly and HBSS once weekly. Another control group received DP28 control antibody, administered at 100 μg/dose, twice weekly. Treatments with D93 and Taxol, as well as controls, were initiated on the same day (Day 1).\nTumor sizes were measured every 7 days starting at the first day of treatment and continued until day 55 post-treatment. Measurements were recorded as (L×W^2)/2 where L is the length of the tumor or the largest diameter, and W is the width or shortest diameter. Animals were euthanized at the end of the study and the final measurements were recorded.\nIn a study similar to that described in Example 21, Taxol was administered intraperitoneally at 6 or 10 mg/kg q.w. Animals were treated for 51 days."}, "[1]": {"test_system": "MX-1 human breast carcinoma cells", "experiment": "Non-orthotopic MX-1 human breast tumor model", "format": "in vivo, SCID mice", "description": "A study was performed in the staged subcutaneous (non-orthotopic) MX-1 breast tumor model. Female, 7 week-old, SCID mice were injected in the dorsal right flank with 0.75×10^7 MX-1 human breast carcinoma cells in 100 μl of PBS. Treatments were initiated when MX-1 tumors grew to a mean volume of 115 mm^3. The animals were randomly divided into 5 treatment groups, each having 6-7 animals per group. Animals were treated with D93 (i.v., 2×/week) and/or Taxol 100 μl volume (i.p. 2×/week), as outlined below. One control group of animals remained untreated, and another received PBS (vehicle) only. The animals were treated for 25 days.\nTumor size was measured every 7-20 days starting at first day-post randomization and continued until the end of the study. Measurements were recorded as (L×W^2)/2 where L is the length of the tumor or the largest diameter, and W is the width or shortest diameter. Animals were euthanized at the end of the study and final tumor measurements were recorded."}, "[2]": {"test_system": "protease produced by HUVEC that unmasks the cryptic site in type-IV collagen", "experiment": "Unmasking of HUIV26 cryptic site in collagen type-IV by HUVEC conditioned media", "format": "biochemical, human", "description": "Microtiter plates were coated with extracellular matrix components, each at a concentration of 25 μg/ml. A). Mab HUIV26 was added at a concentration of 1 μg/ml, followed 1 hour later with goat anti-mouse peroxidase labeled IgG. Denatured collagen type-I and collagen type-IV were prepared by boiling for 15 minutes before coating the plates. All data were corrected for any non-specific binding of secondary antibody. Data bars represent the mean optical density (O.D.)±standard deviations from triplicate wells. B). Microtiter wells were coated with triple helical collagen type-IV at 25 μg/ml. Concentrated (20×) HUVEC conditioned media was added to the wells in the presence or absence of EDTA, aprotinin or both and allowed to incubate for 1, 6 and 24 hours. The plates were next washed, blocked and incubated with Mab HUIV26 or control antibody. All data were corrected for non-specific secondary antibody binding. Data bars represent the mean optical density (O.D.)±standard deviations from triplicate wells. The following abbreviations are used in the figure Coll-I, collagen type-I; Coll-IV, collagen type-IV."}, "[3]": {"conditions": "Table IV, D93 or DP-28 100 μg i.v. 2×/week and/or Taxol 6 mg/kg i.p. 1×/week"}, "[4]": {"conditions": "Table IV, Taxol 3 mg/kg i.p. 1×/week alone or with D93 100 μg i.v. 2×/week"}, "[5]": {"conditions": "Table V, D93 or DP-28 100 μg i.v. 2×/week and/or Taxol 6 mg/kg i.p. 1×/week"}, "[6]": {"conditions": "Table V, Taxol 10 mg/kg i.p. 1×/week alone or with D93 100 μg i.v. 2×/week"}, "[7]": {"conditions": "Table VI, D93 100 μg i.v. 2×/week and/or Taxol 6 mg/kg i.p. 2×/week"}}, "data": [{"compound": "CC(=O)O[C@H]1C(=O)[C@@]2(C)[C@H]([C@H](OC(=O)c3ccccc3)[C@]3(O)C[C@H](OC(=O)[C@H](O)[C@@H](NC(=O)c4ccccc4)c4ccccc4)C(C)=C1C3(C)C)[C@]1(OC(C)=O)CO[C@@H]1C[C@@H]2O", "note": "[Taxol, paclitaxel]", "values": [{"measurement": "inhibition of tumor volume compared to DP28", "setting": "MDA-MB-435 tumor cells; Example 21, D93 100 μg/dose twice per week and/or Taxol 6 mg/kg q.w.", "value": 42, "unit": "%"}, {"measurement": "inhibition of tumor growth compared to DP-28", "setting": "MDA-MB-435 tumor cells; Example 21, Taxol 3 mg/kg q.w. alone or plus D93 100 μg/dose twice per week", "value": 6, "unit": "%"}, {"measurement": "Tumor volume, Day 1", "setting": "MDA-MB-435 tumor cells; [3]", "value": 78, "unit": "mm^3"}, {"measurement": "Tumor volume, Day 8", "setting": "MDA-MB-435 tumor cells; [3]", "value": 203, "unit": "mm^3"}, {"measurement": "Tumor volume, Day 27", "setting": "MDA-MB-435 tumor cells; [3]", "value": 315, "unit": "mm^3"}, {"measurement": "Tumor volume, Day 34", "setting": "MDA-MB-435 tumor cells; [3]", "value": 399, "unit": "mm^3"}, {"measurement": "Tumor volume, Day 41", "setting": "MDA-MB-435 tumor cells; [3]", "value": 530, "unit": "mm^3"}, {"measurement": "Tumor volume, Day 48", "setting": "MDA-MB-435 tumor cells; [3]", "value": 688, "unit": "mm^3"}, {"measurement": "Tumor volume, Day 54", "setting": "MDA-MB-435 tumor cells; [3]", "value": 793, "unit": "mm^3"}, {"measurement": "Tumor volume, Day 55", "setting": "MDA-MB-435 tumor cells; [3]", "value": 787, "unit": "mm^3"}, {"measurement": "Tumor volume, Day 1", "setting": "MDA-MB-435 tumor cells; [4]", "value": 78, "unit": "mm^3"}, {"measurement": "Tumor volume, Day 8", "setting": "MDA-MB-435 tumor cells; [4]", "value": 257, "unit": "mm^3"}, {"measurement": "Tumor volume, Day 27", "setting": "MDA-MB-435 tumor cells; [4]", "value": 361, "unit": "mm^3"}, {"measurement": "Tumor volume, Day 34", "setting": "MDA-MB-435 tumor cells; [4]", "value": 476, "unit": "mm^3"}, {"measurement": "Tumor volume, Day 41", "setting": "MDA-MB-435 tumor cells; [4]", "value": 604, "unit": "mm^3"}, {"measurement": "Tumor volume, Day 48", "setting": "MDA-MB-435 tumor cells; [4]", "value": 815, "unit": "mm^3"}, {"measurement": "Tumor volume, Day 54", "setting": "MDA-MB-435 tumor cells; [4]", "value": 1034, "unit": "mm^3"}, {"measurement": "Tumor volume, Day 55", "setting": "MDA-MB-435 tumor cells; [4]", "value": 1275, "unit": "mm^3"}, {"measurement": "Tumor volume, Day 1", "setting": "MDA-MB-435 tumor cells; [5]", "value": 58.55, "unit": "mm^3"}, {"measurement": "Tumor volume, Day 21", "setting": "MDA-MB-435 tumor cells; [5]", "value": 210.6, "unit": "mm^3"}, {"measurement": "Tumor volume, Day 32", "setting": "MDA-MB-435 tumor cells; [5]", "value": 392.04, "unit": "mm^3"}, {"measurement": "Tumor volume, Day 39", "setting": "MDA-MB-435 tumor cells; [5]", "value": 559.9, "unit": "mm^3"}, {"measurement": "Tumor volume, Day 45", "setting": "MDA-MB-435 tumor cells; [5]", "value": 771, "unit": "mm^3"}, {"measurement": "Tumor volume, Day 51", "setting": "MDA-MB-435 tumor cells; [5]", "value": 866, "unit": "mm^3"}, {"measurement": "Tumor volume, Day 1", "setting": "MDA-MB-435 tumor cells; [6]", "value": 58.6, "unit": "mm^3"}, {"measurement": "Tumor volume, Day 21", "setting": "MDA-MB-435 tumor cells; [6]", "value": 196.5, "unit": "mm^3"}, {"measurement": "Tumor volume, Day 32", "setting": "MDA-MB-435 tumor cells; [6]", "value": 361.56, "unit": "mm^3"}, {"measurement": "Tumor volume, Day 39", "setting": "MDA-MB-435 tumor cells; [6]", "value": 487.05, "unit": "mm^3"}, {"measurement": "Tumor volume, Day 45", "setting": "MDA-MB-435 tumor cells; [6]", "value": 672, "unit": "mm^3"}, {"measurement": "Tumor volume, Day 51", "setting": "MDA-MB-435 tumor cells; [6]", "value": 820, "unit": "mm^3"}, {"measurement": "effect on tumor growth", "setting": "[1]; FIG. 39, D93 100 μg and/or Taxol 6 mg/kg, 25 days", "value": "inhibit tumor growth"}, {"measurement": "Tumor volume, Day 1", "setting": "[1]; [7]", "value": 119, "unit": "mm^3"}, {"measurement": "Tumor volume, Day 5", "setting": "[1]; [7]", "value": 224.19, "unit": "mm^3"}, {"measurement": "Tumor volume, Day 12", "setting": "[1]; [7]", "value": 602, "unit": "mm^3"}, {"measurement": "Tumor volume, Day 19", "setting": "[1]; [7]", "value": 761.89, "unit": "mm^3"}, {"measurement": "Tumor volume, Day 26", "setting": "[1]; [7]", "value": 1196, "unit": "mm^3"}]}, {"compound": "aprotinin", "values": [{"measurement": "block of Mab HUIV26 reactivity observed in the absence of protease inhibitor", "setting": "[2]; 6 hour time point", "value": 40, "unit": "%"}, {"measurement": "block of Mab HUIV26 reactivity observed in the absence of protease inhibitor", "setting": "[2]; 24 hour time point", "value": 70, "unit": "%"}, {"measurement": "effect on unmasking of cryptic site(s) in type-IV collagen", "setting": "[2]; one hour of incubation with HUVEC conditioned media", "value": "little effect"}]}, {"compound": "O=C(O)CN(CCN(CC(=O)O)CC(=O)O)CC(=O)O", "note": "[EDTA]", "values": [{"measurement": "effect on the HUVEC protease that unmasks the cryptic site in type-IV collagen", "setting": "[2]; FIG. 11B", "value": "inhibited"}]}]}
